From patent EP0293130A2, “Dimers of parathyroid hormone antagonists” (Merck & Co., Inc., priority 1987, dated 1988) come the findings set out here.

For this assay, the system named is adenylate cyclase. To be noted: adenylate cyclase assay. From the text: In the adenylate cyclase assay of Caporale, L. et al, Peptides: Structure and Function, Proc. 9th Am. Pept. Symp. p.

pIC50: −log10 of the molar value.

In the case of ([Tyr³⁴,Cys³⁹]PTH(21-39)NH₂)₂, for the setting “dimer versus its monomeric derivative”, the “increase in antagonist potency over its monomeric derivative” value is 25 fold. For the same substance, the pIC50 (read-out: IC₅₀ (antagonist potency), antagonism of PTH) is 4.70.
